Measurements from ChEMBL document CHEMBL1649519, “Mitochondrial DNA depletion in rat liver induced by fosalvudine tidoxil, a novel nucleoside reverse transcriptase inhibitor prodrug” (Antimicrob Agents Chemother, 2009).

Tests used:
Conditions in all cases: in vivo
Rattus norvegicus [1] = assay: Hepatotoxicity in Sprague-Dawley rat assessed as plasma GPT level at 100 mg/kg, po administered via gavage (reference value: 78.3 +/- 8.2 U/l); type: toxicity, organism-based; set-up: dose 100 mg/kg, route oral
Rattus norvegicus [2] = assay: Toxicity in Sprague-Dawley rat assessed as terminal body weight at 100 mg/kg, po administered via gavage (reference value: 517 +/- 55 g); type: organism-based; set-up: dose 100 mg/kg, route oral
Rattus norvegicus [3] = assay: Hepatotoxicity in Sprague-Dawley rat assessed as copies of mitochondrial DNA per cell in sciatic nerves at 100 mg/kg, po administered via gavage (reference value: 457 +/- 182 no_unit); type: toxicity, organism-based, Sciatic nerve; set-up: dose 100 mg/kg, route oral
Rattus norvegicus [4] = assay: Toxicity in Sprague-Dawley rat assessed as liver weight at 100 mg/kg, po administered via gavage (reference value: 18 +/- 2.8 g); type: organism-based; set-up: dose 100 mg/kg, route oral
Rattus norvegicus [5] = assay: Toxicity in Sprague-Dawley rat assessed as mortality at 100 mg/kg, po administered via gavage; type: organism-based; set-up: dose 100 mg/kg, route oral
Rattus norvegicus [6] = assay: Hepatotoxicity in Sprague-Dawley rat assessed as copies of mitochondrial DNA per cell in gastrocnemius muscle at 100 mg/kg, po administered via gavage (reference value: 457 +/- 182 no_unit); type: toxicity, organism-based; set-up: dose 100 mg/kg, route oral
Rattus norvegicus [7] = assay: Hepatotoxicity in Sprague-Dawley rat assessed as copies of mitochondrial DNA per cell in inguinal fat pads at 100 mg/kg, po administered via gavage (reference value: 457 +/- 182 no_unit); type: toxicity, organism-based, Fat pad; set-up: dose 100 mg/kg, route oral
Rattus norvegicus [8] = assay: Hepatotoxicity in Sprague-Dawley rat assessed as effect on plasma total bilirubin level at 15 to 100 mg/kg, po administered via gavage; type: toxicity, organism-based; set-up: dose 15-100 mg/kg, route oral
Rattus norvegicus [9] = assay: Hepatotoxicity in Sprague-Dawley rat assessed as copies of mitochondrial DNA per cell in liver at 100 mg/kg, po administered via gavage (reference value: 400 +/- 86 no_unit); type: toxicity, organism-based; set-up: dose 100 mg/kg, route oral
Rattus norvegicus [10] = assay: Hepatotoxicity in Sprague-Dawley rat assessed as copies of mitochondrial DNA per cell in sciatic nerves at 15 mg/kg, po administered via gavage (reference value: 457 +/- 182 no_unit); type: toxicity, organism-based, Sciatic nerve; set-up: dose 15 mg/kg, route oral
Rattus norvegicus [11] = assay: Hepatotoxicity in Sprague-Dawley rat assessed as copies of mitochondrial DNA per cell in gastrocnemius muscle at 15 mg/kg, po administered via gavage (reference value: 457 +/- 182 no_unit); type: toxicity, organism-based; set-up: dose 15 mg/kg, route oral
Rattus norvegicus [12] = assay: Hepatotoxicity in Sprague-Dawley rat assessed as copies of mitochondrial DNA per cell in gastrocnemius muscle at 40 mg/kg, po administered via gavage (reference value: 457 +/- 182 no_unit); type: toxicity, organism-based; set-up: dose 40 mg/kg, route oral
Rattus norvegicus [13] = assay: Toxicity in Sprague-Dawley rat assessed as liver weight at 40 mg/kg, po administered via gavage (reference value: 18 +/- 2.8 g); type: organism-based; set-up: dose 40 mg/kg, route oral
Rattus norvegicus [14] = assay: Toxicity in Sprague-Dawley rat assessed as terminal body weight at 40 mg/kg, po administered via gavage (reference value: 517 +/- 55 g); type: organism-based; set-up: dose 40 mg/kg, route oral
Rattus norvegicus [15] = assay: Toxicity in Sprague-Dawley rat assessed as liver weight at 15 mg/kg, po administered via gavage (reference value: 18 +/- 2.8 g); type: organism-based; set-up: dose 15 mg/kg, route oral
Rattus norvegicus [16] = assay: Hepatotoxicity in Sprague-Dawley rat assessed as plasma GPT level at 40 mg/kg, po administered via gavage (reference value: 78.3 +/- 8.2 U/l); type: toxicity, organism-based; set-up: dose 40 mg/kg, route oral
Rattus norvegicus [17] = assay: Toxicity in Sprague-Dawley rat assessed as mortality at 40 mg/kg, po administered via gavage; type: organism-based; set-up: dose 40 mg/kg, route oral
Rattus norvegicus [18] = assay: Hepatotoxicity in Sprague-Dawley rat assessed as copies of mitochondrial DNA per cell in inguinal fat pads at 15 mg/kg, po administered via gavage (reference value: 457 +/- 182 no_unit); type: toxicity, organism-based, Fat pad; set-up: dose 15 mg/kg, route oral
Rattus norvegicus [19] = assay: Hepatotoxicity in Sprague-Dawley rat assessed as plasma GPT level at 15 mg/kg, po administered via gavage (reference value: 78.3 +/- 8.2 U/l); type: toxicity, organism-based; set-up: dose 15 mg/kg, route oral
Rattus norvegicus [20] = assay: Toxicity in Sprague-Dawley rat assessed as mortality at 15 mg/kg, po administered via gavage; type: organism-based; set-up: dose 15 mg/kg, route oral
Rattus norvegicus [21] = assay: Hepatotoxicity in Sprague-Dawley rat assessed as copies of mitochondrial DNA per cell in sciatic nerves at 40 mg/kg, po administered via gavage (reference value: 457 +/- 182 no_unit); type: toxicity, organism-based, Sciatic nerve; set-up: dose 40 mg/kg, route oral
Rattus norvegicus [22] = assay: Hepatotoxicity in Sprague-Dawley rat assessed as copies of mitochondrial DNA per cell in inguinal fat pads at 40 mg/kg, po administered via gavage (reference value: 457 +/- 182 no_unit); type: toxicity, organism-based, Fat pad; set-up: dose 40 mg/kg, route oral
Rattus norvegicus [23] = assay: Hepatotoxicity in Sprague-Dawley rat assessed as copies of mitochondrial DNA per cell in liver at 40 mg/kg, po administered via gavage (reference value: 400 +/- 86); type: toxicity, organism-based; set-up: dose 40 mg/kg, route oral
Rattus norvegicus [24] = assay: Toxicity in Sprague-Dawley rat assessed as terminal body weight at 15 mg/kg, po administered via gavage (reference value: 517 +/- 55 g); type: organism-based; set-up: dose 15 mg/kg, route oral
Rattus norvegicus [25] = assay: Hepatotoxicity in Sprague-Dawley rat assessed as copies of mitochondrial DNA per cell in liver at 15 mg/kg, po administered via gavage (reference value: 400 +/- 86); type: toxicity, organism-based; set-up: dose 15 mg/kg, route oral

Structure (SMILES)	Activity (Rattus norvegicus [1]) [U/L]	Activity (Rattus norvegicus [2]) [g]	Activity (Rattus norvegicus [3])	Activity (Rattus norvegicus [4]) [g]	Activity (Rattus norvegicus [5])	Activity (Rattus norvegicus [6])	Activity (Rattus norvegicus [7])	Activity (Rattus norvegicus [8])	Activity (Rattus norvegicus [9])	further results
O=c1[nH]cnc2c1ncn2[C@H]1CC[C@@H](CO)O1 [DIDANOSINE]	68.8	501	219	16.2	Non-toxic	489	129	Non-toxic	193	
CCCCCCCCCCCCSC[C@@H](COP(=O)(O)OC[C@H]1O[C@@H](n2cc(C)c(=O)[nH]c2=O)C[C@@H]1F)OCCCCCCCCCC [FOSALVUDINE TIDOXIL]	96.7	428	213	14.5	Toxic	548	158	Non-toxic	188	Activity (Rattus norvegicus [10]): 196; Activity (Rattus norvegicus [11]): 475; Activity (Rattus norvegicus [12]): 534; Activity (Rattus norvegicus [13]): 15.6 g; Activity (Rattus norvegicus [14]): 465 g; Activity (Rattus norvegicus [15]): 16.8 g; Activity (Rattus norvegicus [16]): 80.5 U/L; Activity (Rattus norvegicus [17]): Toxic; Activity (Rattus norvegicus [18]): 134; Activity (Rattus norvegicus [19]): 71 U/l; Activity (Rattus norvegicus [20]): Toxic; Activity (Rattus norvegicus [21]): 205; Activity (Rattus norvegicus [22]): 159; Activity (Rattus norvegicus [23]): 254; Activity (Rattus norvegicus [24]): 459 g; Activity (Rattus norvegicus [25]): 249
